# Where “and” joins values, the source holds several entries; their conditions need not be identical. Identical values can stand only once. After the bases stand the sugars from the 5' end (letter, count) and the backbone: PS all phosphorothioate, else s phosphorothioate and o phosphodiester by linkage. Methylation of C is not given here. k = constrained ethyl (cEt); d = 2'-deoxy (DNA)
# Target: MALAT1
# Conditions: ASO, A431, 0.005 µM
row,Sequence,target mRNA inhibition
1,"GGAGTTGAGGCAAGTC (sugars k3 d10 k3, PS)",41%
2,"TCATTACCCCAACTAA (sugars k3 d10 k3, PS)",17%
3,"CCTATCTTCTCCAGTC (sugars k3 d10 k3, PS)",-13%
4,"CCCTTCAAGCACCGCT (sugars k3 d10 k3, PS)",28%
5,"AACTGTAAACCTGTGG (sugars k3 d10 k3, PS)",-8%
6,"TGCTTATTCCCCAATG (sugars k3 d10 k3, PS)",52%
7,"AGGTATGAGCTTCAGA (sugars k3 d10 k3, PS)",1%
8,"CTACAAGTTACATGTT (sugars k3 d10 k3, PS)",-9%
9,"ACTGATCTGACTTTGT (sugars k3 d10 k3, PS)",32%
10,"AAACCCCCGGAACTTT (sugars k3 d10 k3, PS)",5%
11,"ACTTATCCCTAACATG (sugars k3 d10 k3, PS)",13%
12,"AGTAGTTGTATTAATC (sugars k3 d10 k3, PS)",64% and 41%
13,"ACCACGAACTGCTGCT (sugars k3 d10 k3, PS)",52%
14,"CTTCTATTGGTATTAA (sugars k3 d10 k3, PS)",18%
15,"GACTTGGCAGTCTGCC (sugars k3 d10 k3, PS)",10%
16,"TTTACACCTCAGTACG (sugars k3 d10 k3, PS)",35%
17,"ATAACTGATCTGACTT (sugars k3 d10 k3, PS)",-5%
18,"ACCAAAGCTGCACTGT (sugars k3 d10 k3, PS)",15%
19,"ATTACACCAGTCCTTT (sugars k3 d10 k3, PS)",40%
20,"GAAAACCCACTCTTGG (sugars k3 d10 k3, PS)",10%
21,"TGAGGCAAGTCCTCAT (sugars k3 d10 k3, PS)",5%
22,"GCCTTTAGGATTCTAG (sugars k3 d10 k3, PS)",30%
23,"CAAGTTAAACTTATCT (sugars k3 d10 k3, PS)",16%

row,Sequence,target mRNA inhibition
1,"CACTGGTACACCCAGT (sugars k3 d10 k3, PS)",15%
2,"AGCAGCACGGGCTGTC (sugars k3 d10 k3, PS)",10%
3,"CAAAAGCCCTCTCAGC (sugars k3 d10 k3, PS)",-14%
4,"TGAACCGGAGCAGGAA (sugars k3 d10 k3, PS)",5%
5,"CGCTCCTTCCTGGAAT (sugars k3 d10 k3, PS)",-19%
6,"TCCCATAATTGTAGTT (sugars k3 d10 k3, PS)",27%
7,"ACCAGTCCTTTTAGTA (sugars k3 d10 k3, PS)",-2%
8,"GCACATCATGCTATTC (sugars k3 d10 k3, PS)",45%
9,"TGATCTGCGGCCCCCC (sugars k3 d10 k3, PS)",-50%
10,"CGGCCCCCCAGTTGCC (sugars k3 d10 k3, PS)",17%
11,"TTAGGATTCTAGACAG (sugars k3 d10 k3, PS)",43%
12,"GGACGGTTGAGAAGTG (sugars k3 d10 k3, PS)",-4%
13,"GGATTTGAACCCCGTC (sugars k3 d10 k3, PS)",30%
14,"GACTGAATATGAACCA (sugars k3 d10 k3, PS)",51% and 76%
15,"TGGCAAAATGGCGGAC (sugars k3 d10 k3, PS)",19%
16,"TAAGCCTTCGGTGCCT (sugars k3 d10 k3, PS)",4%
17,"TATGGATCATGCCCAC (sugars k3 d10 k3, PS)",27%
18,"GCACTAAAGATCACTG (sugars k3 d10 k3, PS)",23%
19,"GTTGAGGCAAGTCCTC (sugars k3 d10 k3, PS)",3%
20,"AATTGGTAGCTTTCAT (sugars k3 d10 k3, PS)",64% and 81%
21,"CAAATTGCACTCGCTC (sugars k3 d10 k3, PS)",34%
22,"TCTTGAGGGACAGTAG (sugars k3 d10 k3, PS)",-7%
23,"GTTTTATCTAAATACC (sugars k3 d10 k3, PS)",29%

row,Sequence,target mRNA inhibition
1,"GGCAAATTAATGGCCT (sugars k3 d10 k3, PS)",25%
2,"GGCCTTTTAAAGTAGA (sugars k3 d10 k3, PS)",28%
3,"CCTACAACACCCGGAA (sugars k3 d10 k3, PS)",0%
4,"TAACTACCAGCCATTT (sugars k3 d10 k3, PS)",24%
5,"GAGTGAAGTGTACTAT (sugars k3 d10 k3, PS)",62% and 77%
6,"CCTCCTCCGTGTGGTT (sugars k3 d10 k3, PS)",32%
7,"TACAAGTTACATGTTC (sugars k3 d10 k3, PS)",20%
8,"TGCGACTTGCTCCCAA (sugars k3 d10 k3, PS)",-13%
9,"AAGATTTGAGCTGCAA (sugars k3 d10 k3, PS)",-1%
10,"ACCCGGAAATCGGCCT (sugars k3 d10 k3, PS)",-6%
11,"CCGCAGGGATTTGAAC (sugars k3 d10 k3, PS)",2%
12,"CATTGCCTCTTCATTG (sugars k3 d10 k3, PS)",36%
13,"AGAGAAGAATCCCCCC (sugars k3 d10 k3, PS)",28%
14,"TTACCTAAACCCACCC (sugars k3 d10 k3, PS)",38%
15,"GGTTTAAGTTGGTTTT (sugars k3 d10 k3, PS)",90% and 97%
16,"CCCTTCTATTGGTATT (sugars k3 d10 k3, PS)",7%
17,"CTCAGTCCTAGCTTCA (sugars k3 d10 k3, PS)",42%
18,"AGAGTGTTCGCAGACA (sugars k3 d10 k3, PS)",57%
19,"CTATACTTCTCCAATA (sugars k3 d10 k3, PS)",-13%
20,"CTTATTTAGAGGGCCT (sugars k3 d10 k3, PS)",36%
21,"ATCACCTTCCGCCGCC (sugars k3 d10 k3, PS)",15%
22,"CCTGCTACCTTCATCA (sugars k3 d10 k3, PS)",22%
23,"TTGGGAGTTACTTGCC (sugars k3 d10 k3, PS)",70% and 73%

row,Sequence,target mRNA inhibition
1,"ACAATCACTACTCCAA (sugars k3 d10 k3, PS)",31%
2,"TGGAGATCAGCTTCCG (sugars k3 d10 k3, PS)",18%
3,"CATCACCGGAATTCGA (sugars k3 d10 k3, PS)",2%
4,"CGCAGGGATTTGAACC (sugars k3 d10 k3, PS)",15%
5,"TAATAGAGCTACTTAG (sugars k3 d10 k3, PS)",-16%
6,"GCTCTGTAGTCCTTTC (sugars k3 d10 k3, PS)",42%
7,"ATTGGTAGCTTTCATT (sugars k3 d10 k3, PS)",70% and 83%
8,"AACCTACAACACCCGG (sugars k3 d10 k3, PS)",34%
9,"TGGAATCCTGTCTGCT (sugars k3 d10 k3, PS)",17%
10,"CAAGCATTCCTTCGGA (sugars k3 d10 k3, PS)",25%
11,"GCCTGGAATTATTATA (sugars k3 d10 k3, PS)",31%
12,"TACAAAAGCTACCATC (sugars k3 d10 k3, PS)",12%
13,"CCCCCAAGATTGCCCC (sugars k3 d10 k3, PS)",11%
14,"CTTCACCACGAACTGC (sugars k3 d10 k3, PS)",43%
15,"TTAGGTATGAGCTTCA (sugars k3 d10 k3, PS)",18%
16,"GACCATCCCAAAATGC (sugars k3 d10 k3, PS)",8%
17,"AATCCCTTCAGGATCA (sugars k3 d10 k3, PS)",8%
18,"CCTTCCGCCGCCTCTT (sugars k3 d10 k3, PS)",3%
19,"TTCGGTTTAATCTCTT (sugars k3 d10 k3, PS)",94%
20,"GCTCGCCTCCTCCGTG (sugars k3 d10 k3, PS)",27%
21,"TTCCCATAATTGTAGT (sugars k3 d10 k3, PS)",18%
22,"GCCACTCAAATGCCTA (sugars k3 d10 k3, PS)",18%
23,"TAACATAGTTCAACCC (sugars k3 d10 k3, PS)",17%

row,Sequence,target mRNA inhibition
1,"CAGCGGTACACTCCTT (sugars k3 d10 k3, PS)",36%
2,"AACCACACACTACCAT (sugars k3 d10 k3, PS)",-7%
3,"ACTTGAATGCAAACTA (sugars k3 d10 k3, PS)",11%
4,"CAAACTAAGCTACTAT (sugars k3 d10 k3, PS)",15%
5,"CCCACGGCCCGCACGG (sugars k3 d10 k3, PS)",14%
6,"TGAACCAAAGCTGCAC (sugars k3 d10 k3, PS)",2%
7,"ATGCTAGTCCTCAGGA (sugars k3 d10 k3, PS)",-20%
8,"CACTGCCAACTAATTG (sugars k3 d10 k3, PS)",39%
9,"GATTGTAAGCATTTAA (sugars k3 d10 k3, PS)",54% and 67%
10,"GGGACGGTTGAGAAGT (sugars k3 d10 k3, PS)",7%
11,"GTCTTAGCAGAGAATT (sugars k3 d10 k3, PS)",47%
12,"AGATTTGAGCTGCAAA (sugars k3 d10 k3, PS)",11%
13,"GCTACTTAGCTGTGGT (sugars k3 d10 k3, PS)",28%
14,"ATATTTTAAACGGGTC (sugars k3 d10 k3, PS)",16%
15,"TGCAGTTTCTATAGTA (sugars k3 d10 k3, PS)",9%
16,"AGCCTTGCAGGGACGG (sugars k3 d10 k3, PS)",-21%
17,"GACGCAATTCTCCCTG (sugars k3 d10 k3, PS)",27%
18,"TTGCCCTTCTATTGGT (sugars k3 d10 k3, PS)",11%
19,"CCGGAATTCGATCACC (sugars k3 d10 k3, PS)",9%
20,"ATGGCTTTGTCTCCGA (sugars k3 d10 k3, PS)",15%
21,"GTAGATTCCGTAACTT (sugars k3 d10 k3, PS)",73% and 54% and 50%
22,"TGCTAGCTTGGCCAAG (sugars k3 d10 k3, PS)",16%

# Source: the OligoGym collection
